In publication PMC12064607 (Clinical Pharmacokinetics, 2025):
Where two headings read alike, the source gives them in different places.

Legend:
SARS-CoV-2 variants [1] = conditions: cited from earlier work
SARS-CoV-2 variants [2] = experiment: microbe, parasite or virus in culture
[3] = Severe acute respiratory syndrome coronavirus 2, read-out: highest EC50 reported in the literature, corrected for plasma protein binding
[4] = Severe acute respiratory syndrome coronavirus 2, read-out: highest EC90 reported in the literature, corrected for plasma protein binding
[5] = Severe acute respiratory syndrome coronavirus 2, read-out: lowest EC50 reported in the literature, corrected for plasma protein binding
[6] = Severe acute respiratory syndrome coronavirus 2, read-out: lowest EC90 reported in the literature, corrected for plasma protein binding

N#C[C@@]1(c2ccc3c(N)ncnn23)O[C@H](CO)[C@@H](O)[C@H]1O [GS-441524]
EC50 (SARS-CoV-2 variants [1]): 80 to 5600 nM
EC90 (SARS-CoV-2 variants [1]): 710 to 3900 nM
EC50 (SARS-CoV-2 variants [2]; [3]): 5710 nM
EC90 (SARS-CoV-2 variants [2]; [4]): 3980 nM
EC50 (SARS-CoV-2 variants [2]; [5]): 80 nM
EC90 (SARS-CoV-2 variants [2]; [6]): 720 nM

CCC(CC)COC(=O)[C@H](C)N[P@](=O)(OC[C@H]1O[C@@](C#N)(c2ccc3c(N)ncnn23)[C@H](O)[C@@H]1O)Oc1ccccc1 [Remdesivir, reference compound]
EC50 (SARS-CoV-2 variants [1]): 1 to 1700 nM
EC90 (SARS-CoV-2 variants [1]): 22 to 3100 nM
EC50 (SARS-CoV-2 variants [2]; [3]): 14200 nM
EC90 (SARS-CoV-2 variants [2]; [4]): 25800 nM
EC50 (SARS-CoV-2 variants [2]; [5]): 8 nM
EC90 (SARS-CoV-2 variants [2]; [6]): 180 nM
